For data set [1], the system named is ZDF rats. As to conditions: rat, in vivo, 28 days. The method, then:
Compound 18 was administered at doses up to 5 mg/kg/d. Compound cis-13-1 was administered at doses up to 50 mg/kg/d. We reasoned that the ZDF rat, as a metabolically challenged animal model, would be more sensitive to the potential adverse cardiac effects of thyromimetics than a normal, cholesterol-fed rat. At sacrifice, heart rate, and the first derivative of left ventricular pressure (LV dP/dt) were measured with a Millar catheter inserted into the left ventricle.

Data set [2] has as its system Sprague Dawley (SD) rat. Description: Cardiovascular activity of T3 mimetics in the Sprague Dawley rat, oral 7 days. The format is in vivo. Conditions: SD rats, p.o. 7 days, Compound cis-13-1 1-50 mg/kg/day. The text has this: Method: […] The control group (n=6) was given vehicle only. […] On the 7th day after the start of dosing, animals were anesthetized with Isoflurane and the left ventricle cannulated with a high fidelity catheter tip transducer via the right carotid artery. Left ventricular pressure, its first derivative (LVdP/dt), lead I ECG, and heart rate (HR) triggered off the ECG waveform, were digitally recorded. LV dP/dt is a well accepted measure of ionotropic state. Systolic and diastolic aortic pressures were measured by retracting the catheter into the proximal aorta.

Data set [3] has as its system cholesterol fed rats. The data set can be described thus: Subacute studies in cholesterol fed rats, PO once a day for seven days: cholesterol reduction, heart weight. The data set is classed as in vivo, rat. As to conditions: 0.6-50 mg/kg/day PO once a day for seven days. The method, then: Methods: […] Compound 13-1-cis and Compound 18 were administered PO once a day for seven days. Serum TSH is measured using an enzyme immunoassay (EIA) kit designed for rat TSH (Amersham Pharmacia Biotech, Arlington Heights, Ill.). Expression levels of liver genes (e.g., the LDL-receptor, apoB, cpt-1, spot14 and apoA1) and heart genes ([…]^2, Kv1.5, MHCα, MHCβ, Alpha1c) are quantified by Northern blot analysis or by RT-PCR. […] Oligonucleotides specific for the complementary gene sequences are used to make ^32P-labeled probes (Multiprime DNA labeling systems, Amersham Pharmacia Biotech). Following hybridization of the probes to the nylon membranes, radioactivity is assessed on a blue film (Eastman Kodak Co,), and the resulting image quantified using the appropriate software. RT-PCR is performed using an iCycler instrument (Biorad) using appropriate primers by means of standard methodology [[…] et al. (2000) Life Sciences 66: 1683-94]. […] The activities of PEPCK and glucose 6-phosphatase in liver are measured by means of direct enzymatic assays of homogenized liver tissue as described by Andrikopoulos S et al. (1993) Diabetes 42: 1731-1736. Alternatively, expression levels of the corresponding genes are determined by Northern blot analysis or RT-PCR as described above.

Data set [4] deals with Hypercholesterolemic rats. The data set can be described thus: Cholesterol lowering in hypercholesterolemic (cholesterol-fed) rats. The data set is classed as in vivo, rat. On the procedure: Plasma cholesterol values were assessed prior to and following treatment and the effects of compound were expressed as a percentage change from the pre-dose cholesterol levels. […] Compounds were routinely tested for oral efficacy at a dose of 0.5 mg/kg/d. Hypercholesterolemic rats were treated with vehicle, Compound 13-1-cis (a HepDirect version of Compound 7), Compound 19-1 (a diethyl ester of Compound 19-2), Compound 13-9 (a HepDirect version of Compound 19-2), Compound 12-5 (a bisPom version of compound 19-2), or Compound 15-5 (a bisamidate version of Compound 19-2) at 0.5 mg/kg/d orally. Compound 13-1-cis has been extensively characterized and was used as the positive control for the assay.

Data set [5] relates to ZDF rats. The data set can be described thus: Circulating TSH in ZDF rats treated 28 days. The format is in vivo, rat. Conditions: 50 mg/kg/d for 28 days. The text has this: Another concern with synthetic thyromimetics is the suppression of the endogenous thyroid axis. Thyroid homeostasis is maintained by the action of thyroid releasing hormone (TRH) and thyroid stimulating hormone (TSH). […] Although this particular side effect has been noted, it has typically been treated with less concern than the cardiac safety issues. […] Therefore previous investigators have measured TSH levels when testing synthetic thyromimetics and have used a 30% decrease of TSH as the denominator in their therapeutic index calculations. […] Therefore, both compounds suppress TSH as doses lower than that required to decrease circulating cholesterol. […] However, 0.2 mg/kg/d of Compound 18 in 28 day treated ZDF rats, decreased TSH levels greater than 90%.

The test system of data set [6] is ZDF rats. The data set can be described thus: Liver triglycerides and liver histology in ZDF rats, oral 28 days. The format is in vivo, rat. The method, then: In other experiments, Compound 7 was orally administered to ZDF rats for 28 days. Liver triglycerides were analyzed as described above. Total liver triglycerides were reduced in the treated animals 42% in the 2.5 mg/kg/d group. […] The hepatic steatosis is a well known and described phenomenon for the ZDF rat, and therefore not attributable to vehicle treatment.

The subject of data set [7] is isolated rat hepatocytes. Description: Activation of prodrug in isolated rat hepatocytes. The format is in vitro ADME. As to conditions: active species in hepatocytes, 100 μM. On the procedure: Method: Hepatocytes are prepared from fed Sprague-Dawley rats (250-300 g) according to the procedure of Berry and Friend (Berry, M. N., Friend, D. S. J. Cell Biol. 43, 506-520 (1969)) as modified by Groen (Groen, A. K. et al., Eur J. Biochem 122, 87-93 (1982)). Hepatocytes (60 mg wet weight/mL) are incubated in 1 mL Krebs-bicarbonate buffer containing 10 mM glucose, and 1 mg/mL BSA. Incubations are carried out in a 95% oxygen, 5% carbon dioxide atmosphere in closed, 50-mL Falcon tubes submerged in a rapidly shaking water bath (37° C.). Prodrugs are dissolved in DMSO to yield 10 mM stock solutions, and then diluted into the cell suspension to yield a final concentration of 100 μM. At appropriate time points over the course of 1 h, aliquots of the cell suspension are removed and spun through a silicon/mineral oil layer into 10% perchloric acid. The cell extracts in the acid layers are neutralized, and the intracellular prodrug metabolite content analyzed by reverse phase HPLC or LC-MS/MS (Example F). The AUC of the active species in the hepatocytes is calculated from the concentration-time profile of parent compound.

A short description of data set [8]: Liver distribution following oral administration (liver levels of Compound 7 by LC-MS). Conditions: levels of Compound 7 in liver, 10 mg/kg@1.5 h, normal rats. The data set is classed as in vivo, rat. The method, then: Liver levels of Compound 7 were assessed in normal rats following oral administration of the HepDirect™ or other prodrugs. The levels were used to estimate potential efficacy. Liver levels were assessed by LC-MS using the 363.3/63.0 peak area to estimate levels of Compound 7 generated by orally administered prodrugs.

In data set [9] the test system is cholesterol-fed rat. Description: Subacute studies in cholesterol-fed rats, IP once-a-day for seven days: serum cholesterol, heart weight, heart GPDH.
Procedure: The cholesterol-fed rat is an animal model of hypercholesterolemia generated by feeding the animals a diet with high cholesterol content.
Serum cholesterol values were assessed and the animals randomized into groups for treatment.
Setting [10] is: Compound 18 1 mg/kg, vs control.
Where [11] appears, read: Compound 18 1 mg/kg, vs vehicle.

Each structure is given as a SMILES string.

`Cc1cc(OC[P@@]2(=O)OCC[C@@H](c3cccc(Cl)c3)O2)cc(C)c1Cc1ccc(O)c(C(C)C)c1` [Compound 13-1-cis, Cis (S)-2-[(3,5-Dimethyl-4-(4′-hydroxy-3′-iso-propylbenzyl)phenoxy)methyl]-4-(3-Chlorophenyl)-2-oxo-2λ^5-[1,3,2]-dioxaphosphinane]: the “TI Improvement, ED15 HR” value in data set [1] was >39. For the same compound, in data set [2] (setting [10]), the Heart weight entry is on record as “no significant changes” and the “heart weight normalized to body weight” value is “no significant changes”. Moreover, in [2] (setting [11]), the HR result is given as “not significantly different”, the “LV dP/dt” value was “not significantly different” and the systolic aortic pressure result is reported as “not significantly different”. Further, the diastolic aortic pressure entry in [2] (vs vehicle) is recorded as “not significantly different”. The serum cholesterol result in [3] is listed as “significantly decreased serum cholesterol”. Moreover, the cholesterol lowering result in [4] (hypercholesterolemic rats, 0.5 mg/kg/d orally) is “significant lowering of cholesterol”.

For the compound `Cc1cc(OCP(=O)(O)O)cc(C)c1Cc1ccc(O)c(C(C)C)c1` [Compound 7, [3,5-dimethyl-4-(4′-hydroxy-3′-iso-propylbenzyl)phenoxy]methylphosphonic Acid], the TSH result in [5] is recorded as “no statistically significant difference from vehicle”. The “microvesicular steatosis (H&E liver histology)” value in data set [6] was “dose dependent reduction in the microvesicular steatosis”. The “AUC (0-2 h)” value in data set [7] was determined as 1371 nmol·h/g. The “Liver Levels” value in data set [8] is “Not Detected”. For the same compound, the “efficacy in lowering cholesterol” value in data set [4] (another experiment, dose and route not given) is given as “efficacous”. The serum cholesterol result in data set [9] (1-100 mg/kd/day, IP once-a-day for seven days) is “significantly decreased serum cholesterol”. Further, the “therapeutic window (separation between cholesterol lowering and cardiac toxicity)” value in [9] (cholesterol-fed rats) is 10- to 100 fold.

Values taken from patent US7829552B2, “Phosphorus-containing thyromimetics” (Metabasis Therapeutics, Inc., priority 2003, dated 2010).
